Source: patent publication US10852311B2, “Additive channels” (Emulate Inc., priority 2016, dated 2020)
Structures can show the parent of a compound that is named as a salt. Positions of bridges follow the written chain, without caps; N, C: chain ends. Non-standard residues stand in square brackets, D forms with d. Residues, ends and D or L forms follow the SMILES beside them. hArg = N=C(N)NCCCC[C@H](N)C(=O)O; Mpa = O=C(O)CCS

Key:
platelets [1] = assay: Platelet activation quality control by p-selectin expression; assay type: cell-based, human; settings: control blood upon activation by ADP
Method: To test for a thrombic event, blood was collected from 4 donors, the as blood alone or blood treated with hu5C8 alone (240 μg/mL), sCD40L (10 ng/ml) alone or with combined hu5C8/sCD40L was incubated for 20 minutes at room temperature. Each sample was further incubated for 5 minutes with fluorescent labels for platelets and fibrinogen. As a standard quality control, the control blood was tested for platelet activation using p-selection expression. We confirmed that platelets in control blood were not activated but upon activation by ADP, over 90% of platelet was positive for p-selectin.

platelets [2] = assay: Vessel-On-Chip blood perfusion, platelet coverage/aggregation by fluorescence imaging; assay type: cell-based, human
Method: At the start of each experiment, two vials of cells were thawed and expanded for 3 days in EGM-2. Cells were gently detached with 0.05% Trypsin (BD Biosciences, 2-4 minutes incubation at room temperature) and 8×10^6 cells/ml were introduced into the ECM-coated microchannels. After incubating for 30 minutes at 37° C., cell attachment to the bottom surface of the chamber was assessed by microscopy. Then, a second flask of HUVECs was trypsinized and used to seed the upper surface of the microfluidic chamber by introducing the cell suspension, inverting the chip, and incubating at 37° C. for 30 minutes. Each microfluidic chamber was gently flushed with EGM-2 twice in order to remove unbound cells, then chips were incubated overnight at 37° C. The next day, chips were connected to a syringe pump (Chemyx Fusion 200) and perfused with EGM-2 for 3 days (30 μL/hr) to provide continuous supply of fresh media. On day 3, medium was switched to EGM-2 with low serum (1% FBS, no VEGF) to promote cell synchronization overnight. On day 4, chips were used for blood perfusion experiments.
Citrated human blood (Research Blood Components, Cambridge, Mass.) was used within 4 hours of a blood draw in order to minimize pre-analytical effects on platelet function. Before every experiment, each one of the endothelialized channels (i.e. microchannels having an endothelial cell layer) was inspected via light microscopy. Samples showing any sign of discontinuity in the endothelium were discarded.
Platelets were labeled with human CD41-PE antibody (10 μL/ml, Invitrogen) directly added to the blood and incubated at room temperature for 5 minutes.
(§1) A medical grade plastic reservoir was mounted on the chip, then 800 μl of the blood sample was pipetted into the reservoir. The chip was perfused with the blood by withdrawing it at a rate of 60 μl/minute using a syringe pump. The citrated blood was re-calcified 2 minutes after the beginning of each experiment by adding 100 μl/ml of a solution containing 100 mM calcium chloride and 75 mM magnesium chloride to the blood to permit calcium- and magnesium-dependent platelet function and coagulation.
(§2) Chips perfused with blood samples were immediately imaged via fluorescence microscopy (Olympus IX83, 10X objective UPLFLN10X2, Circa-Flash4.0 CMOS Camera). Each chamber was inspected along its entire length and 5 images (about […]) were captured from the central area of the chamber. Image processing and quantification was performed with an automatic macro compiled in […] and numerical values corresponding to platelet coverage or fibrin florescence were collected and statistically analyzed in Graphpad Prism V7.
(§3) A percentage of signal coverage (or Platelet coverage) was computed from the binary image as the ratio of bright pixels to the total number of pixels in the image. Image processing and quantification was performed with an automatic macro compiled in ImageJ ire order to ensure unbiased signal measurements. Numerical values corresponding to platelet coverage or fibrin fluorescence (signal intensity) were collected and statistically analyzed in Graphpad Prism V7.

fibrin = assay: Vessel-On-Chip blood perfusion, fibrin deposition by fluorescent fibrinogen imaging; assay type: cell-based, human
Method: as §1
When analyzing the formation of fibrin, 10 μg/ml of fluorescently labeled fibrinogen (Alexa 488, Invitrogen) was also added to the blood. While fluorescent fibrinogen was barely detected as a diffused fluorescence, fibrin deposition on inflamed cells and sparse clots was easily distinguished since fibrin formed filamentous structures produce a signal intensity that is clearly observed above a background threshold.
as §2, §3

[3] = test system: thrombin anti-thrombin complex (TAT); assay: Thrombin-anti thrombin (TAT) measurement via ELISA in chip effluent; assay type: cell-based, human; settings: for TAT increment: Eptifibatide treatment
Method: Thrombin Anti-Thrombin (TAT) levels were analyzed in plasma from blood flowing out of the chip device by removing a sample from the outflow port. Thus TAT levels were evaluated in sample effluents collected from the outflow port of the chip using the Human TAT ELISA Kit (Siemens Healthineers) according to the user manual.
Blood sampled from the Vessel-On-Chip outflow port was analyzed for thrombin anti-thrombin complex (TAT), a factor released upon activation of the coagulation cascade and one of the biomarkers associated with thrombotic events occurring in patients affected with deep vein thrombosis (DVT) or SLE^45,46. TAT is an accepted clinical biomarker for procoagulation^48,49. An enzyme-linked immunosorbent assay (ELISA) was used to quantify the thrombin anti-thrombin complex (TAT).

re-calcified blood = assay: On-chip anticoagulation of outflowing blood through the anticoagulant port; design: species or system human; settings: sodium citrate through the anticoagulant port vs chips without anticoagulant port
Text: In one embodiment, the surface area of the vascular compartment of a microfluidic chip used herein is greater in comparison to the original lung-on-a-chip design because the original size was too small for optimal blood component interaction with endothelium. As described herein, a 1 mm wide and 200 μm tall chamber provided an increase in size of the vascular surface area exposed to laminar flow, as compared to an exemplary lung-on-chip. An anticoagulant port, referred to by several names, including but not limited to EDTA input, citrate input, etc., was added near the outflow port of the vascular chamber. Thus two ports (anticoagulant port and vascular outflow i.e. outflow) were linked through a microfluidic channel (dimension of 250 um wide by 100 um height) to allow for perfusion of anticoagulant solution during the experiment. In some embodiments, modifications were made in the […] dimension. The outlet of the chip was connected to a pulling syringe pump with a system of tubing and connectors made of medical grade silicon that excludes any metal components or potential causes of platelet activation. […]

ICAM1 = ICAM1 immunostaining of endothelium on chip; assay type: cell-based, human; settings: TNF-α stimulated endothelium compared to the control
Method: In some experiment endothelial cells were stimulate with 50 ng/ml of TNF (Sigma) for 6 hours in order to induce vascular inflammation before blood perfusion.

platelets [4] = assay: Hu5C8 mediated thrombosis on-chip, FcγRIIa dependence (platelet coverage, fibrin deposition, TAT); assay type: cell-based, human
Text: Recent studies conducted on humanized mice expressing the human Fcγ receptors (FCGR2A) have shown that this receptor plays a role in thrombosis leading to the IC-mediated toxicity^12,16,21. […] In order to investigate if the IC5c8-induced thrombosis that we observed in our vessel-on-chip system also relies on an Fc-mediated mechanism, we used two different tool molecules: IgG2σ and IV.3 (FIG. 25A). The IgG2σ variant of hu5C8 has an engineered Fc region^48 that eliminates affinity for the FcγRIIa, while the monoclonal antibody IV.3 is a blocking antibody binding to FcγRIIa. […]
Some of the blood samples were treated with IV.3 (1 μg/ml) for 10 minutes to block the FcγRIIa, and then incubated for 20 more minutes with IC5c8. […] We tested 15 donors and all the tested conditions described above were tested in duplicates and analyzed as percentage of platelet coverage based on fluorescence microscopic imaging (FIG. 25B). […]
Blood from several human donors were aliquoted into groups for the following treatments: controls (PBS), sCD40L, combined hu5C8/sCD40L, combined hu5C8 (IgG2σ)/sCD40L combined, and combined hu5C8/sCD40L/IV.3. Each condition was tested with a minimum of 3 donors to a maximum of 15 donors, and all conditions were tested in duplicates and analyzed for platelet coverage (FIG. 25B), fibrin deposition (FIG. 25C), or increased formation of TAT measured in the eluates (FIG. 25D). […]

[5] = Eptifibatide 2 ug/ml, endothelium inflamed with TNF-α, n=4
[6] = Eptifibatide 2 ug/ml, following treatment with sCollagen, n=4
[7] = Eptifibatide 2 ug/ml, samples treated with TNF-α, n=4
[8] = TNF-α 50 ng/ml 6 hours on endothelium, or sCollagen 10 μg/ml in blood, vs control blood
[9] = hu5C8 240 μg/mL, sCD40L 10 ng/ml, 4 donors, 60 μl/minute about 10 minutes, vs untreated blood

Compound: Nc1ncnc2c1ncn2[C@@H]1O[C@H](COP(=O)(O)OP(=O)(O)O)[C@@H](O)[C@H]1O [ADP]
- platelet positive for p-selectin (platelets [1]): over 90%

Compound: N=C(N)NCCCC[C@@H]1NC(=O)CCSSC[C@@H](C(N)=O)NC(=O)[C@@H]2CCCN2C(=O)[C@H](Cc2c[nH]c3ccccc23)NC(=O)[C@H](CC(=O)O)NC(=O)CNC1=O [Eptifibatide] ([Mpa][hArg]GDWPC-NH2; disulfide 1-7)
- platelet aggregation (platelets [2]; [5]): significantly inhibited
- inhibitory effect on platelet aggregation (platelets [2]; [6]): comparatively modest
- platelet adhesion (image analysis) (platelets [2]; [7]): completely inhibited
- fibrin clot formation (fibrin; [5]): significantly inhibited
- inhibitory effect on fibrin clot formation (fibrin; [6]): comparatively modest
- fibrin signal (image analysis) (fibrin; [7]): a significant amount of fibrin signal was still detectable
- TAT increment ([3]; TNF-α-induced inflammation): did not inhibit
- TAT increment ([3]; sCollagen treatment): entirely suppressed

Compound: O=C(O)CC(O)(CC(=O)O)C(=O)O [sodium citrate]
- state of blood collected from the effluent (re-calcified blood): soluble (not clotted) blood

Compound: TNF-α
- areas of platelet coverage (platelets [2]; [8]): increased
- fibrin signal intensity (fibrin; [8]): increased
- levels of TAT ([3]; plasma from blood flowing out of the chip, FIG. 22B): significantly increased
- expression of ICAM1 in the endothelium (ICAM1): increased

Compound: hu5C8 (IgG2σ): IgG2σ variant of hu5C8 with engineered Fc region that eliminates affinity for FcγRIIa
- signs of thrombosis in any of the endpoints (platelets [4]; combined with sCD40L (IV.3: combined hu5C8/sCD40L/IV.3)): did not show signs of thrombosis
- hu5C8-mediated thrombosis (platelets [4]; preformed IC, IV.3 1 μg/ml 10 minutes, 15 donors): suppressed

Compound: hu5C8: humanized monoclonal IgG1 antibody against CD40L (anti-CD154)
- platelet aggregate formation on the endothelium (platelets [2]; [9]): no significant treatment-related effects
- fibrin deposition on the endothelium (fibrin; [9]): no significant treatment-related effects
